Legend:
Format in all cases: cell-based, human
KSHV-infected DMVEC [1] = assay: Morpholino treatment and focus inhibition assay (Example 5); conditions: for effect on phenotype (foci, spindle shape) in focus-inhibition assay (in words): PMO-AS, KSHV-infected DMVEC, 5-10 days; for Foci/spindle morpholigical inhibition: PMO-treated KSHV-infected DMVEC vs control PMO, repeated three times
Procedure: Morpholino Treatment and Focus Inhibition Assay. Phosphorodiamidate morpholino antisense oligonucleotides (PMO-AS) were designed and synthesized by Gene Tools LLC (Philomath, Oreg.) as a Special Delivery formulation, which pairs the morpholino with a partially complementary DNA oligo. A weakly basic delivery agent, Ethoxylated Polyethlyenimine (EPEI) is then used to deliver the anionic morpholino/DNA duplex into the cytosol. PMO-AS were received as sterile, lyophilized solids ([…]) that were solubilized in sterile water to obtain 0.5 mM stock solutions. To load a 35 mm dish of DMVEC at 90% confluence, 5 microl of stock solution was mixed with 5 microl of EPEI delivery solution in 590 μl H20 for 20 minutes at room temperature, and then mixed with 1.5 ml of serum-free RPMI medium. Endothelial growth media was removed from DMVEC, and replaced with the PMO-AS:EPEI:RPMI delivery solution for 3 hours in a 37° C. incubator. After incubation, cells were rinsed, complete endothelial growth medium was added and cells were cultured for up to 10 days without sub-culture, with media replacement every 48-72 hours. This protocol allows for the characteristic post-confluent growth and development of multi-layered spindle-cell aggregates (foci) in KSHV-infected cultures. Cells were monitored daily under the phase microscope to evaluate PMO-AS-inhibition of the development of these foci. At the conclusion of an assay, cells were fixed in 2% paraformaldehyde and stained with a MAB against CD31 (Dako; 1:100) followed by a goat-anti-mouse FITC second conjugate. Junctional staining of cells with CD31 accentuated the disorganized multi-layered nature of the spindle cell aggregates as composed to the flat, organized profile of contact-inhibited cells.
For these assays, KSHV-infected DMVEC monolayers were cultured to 90% confluence and then loaded with each PMO-AS, or maintained as unloaded controls. Cultures were observed daily until control cultures had developed prominent multi-layered aggregates of spindle cells. Typically this took 5-10 days with some variation between replicate experiments. Each experiment was performed at least three times and was performed with mock-infected as well as KSHV-infected DMVEC. As expected, mock-infected DMVEC maintained a quiescent monolayer at confluence, and PMO-AS treatment of uninfected cells occurred without any adverse effect. This observation allowed verification that none of the gene knockdown treatments induced non-specific toxicity in DMVEC. The majority of tested PMO-AS had no effect on the ability of KSHV-infected DMVEC to grow post-confluence and form disorganized, multi-layered foci (TABLE 2).

KSHV-infected DMVEC [2] = assay: XTT assay of PMO-AS effect on post-confluent growth (Example 5); conditions: 72 hours
Procedure: XTTAssay. Metabolism of XTT to a water-soluble formazan dye by viable cells gives a quantitative determination of relative cell number. The XTT assay was thus used to quantitatively assess the effect of PMO-AS treatment on KSHV focus formation and post-confluent growth. For these assays, KSHV-infected and uninfected DMVEC were seeded into 96-well flat-bottom Primaria trays at 10^4 cells/well, loaded with PMO-AS after overnight equilibration, and cultured for 72 hrs. For the final 4 hours of culture, 50 μl XTT (Roche Diagnostics, Indianapolis, Ind.) was added to each well and the optical density (OD) of each well was recorded by an ELISA reader between 450 and 500 nm. To verify efficient (>80%) PMO-AS uptake in the 96-well format, cells were treated with a FITC-tagged morpholino (FITC-PMO) and uptake visually assessed under a fluorescence microscope. This FITC-PMO also served as a control for any non-specific effect of the PMO-AS:EPEI complex on DMVEC growth. As a positive control, cells were treated with a c-Kit PMO-AS previously shown to inhibit KSHV-induced transformation (Moses, 2002). For NIH 3T3 cells, the XTT assay was performed in 96-well plates at a cell density of 10^4 cells/well, and OD measured at 48 hours.
In view of the above-described effects of Neuritin- and RDC1-specific PMO-AS in inhibiting focus formation of KSHV-infected DMVEC, a further determination was made to determine whether such inhibition correlated with reduced cellular proliferation. Such reduced cellular proliferation would be expected, because the development of multilayered cell foci requires additional cell growth that would not occur if contact inhibition was maintained. A colorimetric cellular proliferation assay was used to assess cell growth. […] This growth can be accurately assessed by monitoring the metabolism of XTT added to each well by measurement of optical density at […] (e.g., 4 hours post XTT addition). […] To verify efficient (>80%) PMO-AS uptake in the 96-well format, cells were treated with a FITC-tagged PMO-AS (FITC-PMO) and uptake visually assessed under a fluorescence microscope. […]

DMVEC = assay: Uptake, distribution and persistence of FITC-labeled PMO antisense; conditions: 3 hours after loading, FITC-labeled PMO with EPEI
Excerpt: Introduction of antisense PMO into KSHV-infected DMVEC. Antisense PMO molecules, for delivery purposes, are typically converted to a paired duplex together with a partially complementary cDNA oligonucleotide in the weakly basic delivery reagent ethoxylated polyethylenimine (EPEI) (Summerton, supra). The anionic complex binds to the cell surface, is taken up by endocytosis and eventually released into the cytosol. A protocol for optimum uptake of antisense PMO in immortalized DMVEC was developed using a modification of the EPEI method. Briefly, uninfected, immortalized DMVECs were incubated for 3 hours at 37° C. with 0.6 nmol/well FITC-PMO complexed with EPEI according to the manufacturer's instructions (GeneTools, LLC, One Summerton Way, Philomath, Oreg. 97370) (e.g., 1.25 nMol oligomer with 2.5 μl EPEI reagent per 35 mm dish, allowing for sufficient antisense uptake without non-specific EPEI-induced toxicity). The PMOs were labeled with FITC to allow for monitoring of loading efficiency by fluorescence microscopy.
Cellular distribution of introduced FITC-labeled PMO antisense molecules. […]
Therefore, the introduced PMO antisense oligomers were determined to be stable over substantial time periods in DMVEC. […] Moreover, the PMO oligomers were readily taken up by DMVEC and distributed within the cytosol.

Substance	effect on phenotype (foci, spindle shape) in focus-inhibition assay (in words) (KSHV-infected DMVEC [1])	Foci/spindle morpholigical inhibition (KSHV-infected DMVEC [1])	effect on cell growth in XTT assay (in words) (KSHV-infected DMVEC [2])	cells with FITC-PMO concentrated in intracellular vesicles (endosomes) (DMVEC)
RDC-1: PMO antisense to RDC-1, GAAGAGATGCAGATCCATCGTTCTG (SEQ ID NO:15) (all phosphorodiamidate morpholino (PMO); delivered paired with partially complementary DNA oligo (Special Delivery))	dramatic effect on phenotype	Full	dramatically inhibited cell growth	
KIT: FITC-labeled PMO targeting the start codon of c-Kit, CGCCTCTCATCGCGGTAGCTGCG (SEQ ID NO:21) (all phosphorodiamidate morpholino (PMO); FITC label attached, position not given here)		Full	dramatically inhibited cell growth	about 70%
Neuritin: PMO antisense to Neuritin, TTAACTCCCATCCTACGTTTAGTCA (SEQ ID NO:19) (all phosphorodiamidate morpholino (PMO); delivered paired with partially complementary DNA oligo (Special Delivery))	dramatic effect on phenotype	Full	dramatically inhibited cell growth	

Reference: US20070072209A1, “Methods of treatment and diagnosis of Kaposi's sarcoma (KS) and KS related diseases” (priority 2005, published 2007)
